The assay addresses T1, dopa oxidase (Homo sapiens, UniProt P14679).
T1 sequence (P14679 19-529): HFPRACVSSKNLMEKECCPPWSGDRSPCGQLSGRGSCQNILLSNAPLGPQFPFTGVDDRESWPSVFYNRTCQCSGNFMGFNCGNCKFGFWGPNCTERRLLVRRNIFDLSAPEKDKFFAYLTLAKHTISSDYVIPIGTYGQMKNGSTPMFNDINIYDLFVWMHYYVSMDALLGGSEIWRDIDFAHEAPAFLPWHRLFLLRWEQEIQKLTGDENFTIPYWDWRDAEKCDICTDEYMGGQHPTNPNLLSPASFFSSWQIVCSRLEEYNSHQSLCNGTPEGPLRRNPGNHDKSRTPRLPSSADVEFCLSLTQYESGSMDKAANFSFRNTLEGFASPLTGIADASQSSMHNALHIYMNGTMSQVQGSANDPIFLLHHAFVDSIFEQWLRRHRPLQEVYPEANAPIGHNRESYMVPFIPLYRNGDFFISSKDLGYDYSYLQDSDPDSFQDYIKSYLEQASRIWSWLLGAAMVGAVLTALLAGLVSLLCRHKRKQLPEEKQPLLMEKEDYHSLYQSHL
In words: Dopa oxidase activity in cultured melanocytes (MBTH method). It is filed as cell-based. Particulars: for inhibition at 0.1 µM: evaluation concentration 0.1 μM; for inhibition at 0.1 µM / inhibition at 0.5 µM / inhibition at 1 µM: relative to control, read-out: Dopa oxidase inhibitory rate (%); for inhibition at 0.5 µM: evaluation concentration 0.5 μM; for inhibition at 1 µM: evaluation concentration 1.0 μM; for Dopa oxidase activity of fractions, result in words: activity-guided fractionation of haguro-so 50% ethanol extract, same procedure as Example 1. How it is done: Normal human neonatal epidermal melanocytes (NHEMs; KURABO INDUSTRIES, LTD.) were seeded in a 96-well plates at a density of 1×10^4 cells/well ([…]) and cultured at 37° C. under a 5% CO2. Cells were maintained in Medium 254 (KURABO INDUSTRIES, LTD.) containing growth supplement (HMGS) without PMA.
After 3-day culture, the haguro-so extracts (water extract, 50% ethanol extract, or 95% ethanol extract) prepared in accordance with the above Production Examples 1 to 3 and having an evaporation residue of 1.0 w/v % were each added to give a final concentration shown in Table 1 together with Endothelin-1 (ET-1), SCF, α-MSH, Histamine, and PGE2 adjusted to have a final concentration of 1 nM in each medium, and cultured under the conditions of 37° C. and a 5% CO2 for 3 days. For a control, an ethanol aqueous solution (10%, 50%, or 95%) of the equal amount was added.
After completion of culture, Alamar Blue (Invitrogen) reagent was added in an amount of 20 μL/well and incubated for 2 to 3 hours, followed by measuring the fluorescence intensity of the medium to measure the cellular respiration activity. […] The dopa oxidase activity was measured by the following method with reference to the MBTH method (Winder A. et al., 1991, Eur. J. Biochem. 198: 317-326).
To each of the wells containing the solubilized cell solution, 80 μL of the above assay buffer, 60 μL of 20.7 mM MBTH (3-methyl-2-benzothiazolinon hydrazone) solution, and 40 μL of 5 mM L-dopa(L-dihydroxyphenylalanine) solution as a substrate were added, reacted at 37° C. for 30 to 60 minutes, thereby measuring the color reaction thereof at 490 nm absorbance (N=3). The measured values were shown in the relative value to the result of the control.
Normal human neonatal epidermal melanocytes (NHEMs; KURABO INDUSTRIES, LTD.) were inoculated in a 96-well plate in a cell density of 1×10^4 cells/well (100 μL/well) and cultured at 37° C. under a 5% CO2. The medium used was Medium 254 containing PMA(−) growth supplement (HMGS).
After 3-day culture, each of the compounds shown in Table 4 was added to give final concentrations shown in the same Table, together with Endothelin-1 (ET-1), SCF, α-MSH, Histamine, and PGE2 adjusted to give a final concentration of 1 nM in each medium, and cultured under the conditions of 37° C. and a 5% CO2 for 3 days. For a control, a DMSO solution of the equal amount was added.
After completion of the culture, Alamar Blue (Invitrogen) reagent was added in an amount of 20 μL/well and incubated for 2 to 3 hours, followed by measuring the fluorescence intensity of the medium to measure the cellular respiration activity. […] The dopa oxidase activity was measured by the following method with reference to the MBTH method (Winder A. et al., Eur. J. Biochem., 1991, 198: 317-326).
To each of the wells containing the solubilized cell solution, 80 μL of the above assay buffer, 60 μL of 20.7 mM MBTH (3-methyl-2-benzothiazolinon hydrazone) solution and 40 μL of 5 mM L-dopa (L-dihydroxyphenylalanine) solution as a substrate were added, reacted at 37° C. for 30 to 60 minutes, thereby measuring the color reaction thereof at 490 nm absorbance (N=3).

Experimental findings from patent US9339454B2, “Skin whitening agent” (Kao Corporation, priority 2011, dated 2016) are described below.

Molecules are shown by their SMILES.

With `CCOc1c2c(c(-c3ccc4c(c3)OCO4)c3cc(OC)c(OC)cc13)C(=O)OC2` [Compound 5, 4-Ethoxy-6,7-dimethoxy-9-(1,3-benzodioxol-5-yl)naphtho[2,3-c]furan-1(3H)-one], under “NHEMs, 3 days”, the inhibition at 0.1 µM was determined as 40% and the inhibition at 0.5 µM was determined as 60%.

Take `COc1cc2c(O)c3c(c(-c4ccc5c(c4)OCO5)c2cc1OC)C(=O)OC3` [Compound 4, Diphyllin]: where the note is “NHEMs, 3 days”, the inhibition at 0.5 µM worked out at 20% and the inhibition at 1 µM was 40%.

Take `COc1cc2c(O[C@H]3OCC(O)(CO)C3O)c3c(c(-c4ccc5c(c4)OCO5)c2cc1OC)C(=O)OC3` (stereo partly shown) [Compound 3, Tuberculatin]: the “Dopa oxidase activity of fractions, result in words” value (“Dopa oxidase activity of fractions” below) is “found”. Also, where the note is “NHEMs, 3 days”, the inhibition at 0.1 µM turned out to be 45%, the inhibition at 0.5 µM turned out to be 50% and the inhibition at 1 µM stood at 70%.

Consider `COc1c2c(c(-c3ccc4c(c3)OCO4)c3cc4c(cc13)OCO4)C(=O)OC2` [Compound 7, Justicidin F], for which, under “NHEMs, 3 days”, the inhibition at 0.1 µM came out at 20%.

For `COc1cc2c(OC)c3c(c(-c4ccc5c(c4)OCO5)c2cc1OC)C(=O)OC3` [Compound 1, Justicidin A], the “Dopa oxidase activity of fractions” value is listed as “found”. Besides, under “NHEMs, 3 days”, the inhibition at 0.1 µM came out at 20% and the inhibition at 0.5 µM was found to be 50%. In addition, the “Dopa oxidase inhibitory rate (%)” value (evaluation concentration printed 0.1 μM as third concentration after 0.1 and 0.5, NHEMs, 3 days) was 55%.

As to `COc1cc2cc3c(c(-c4ccc5c(c4)OCO5)c2cc1OC)C(=O)OC3` [Compound 2, Justicidin B], the “Dopa oxidase activity of fractions” value is on record as “found”. Besides, where the note is “NHEMs, 3 days”, the inhibition at 0.1 µM worked out at 10%, the inhibition at 0.5 µM turned out to be 30% and the inhibition at 1 µM was 50%.

Take `COc1cc2c(OC(C)=O)c3c(c(-c4ccc5c(c4)OCO5)c2cc1OC)C(=O)OC3` [Compound 6, 4-acetoxy-6,7-dimethoxy-9-(1,3-benzodioxol-5-yl)naphtho[2,3-c]furan-1(3H)-one]: where the note is “NHEMs, 3 days”, the inhibition at 0.5 µM amounted to 40% and the inhibition at 1 µM turned out to be 50%.
